Assays:
[1] = test system: E. coli 0157:H7 (ATCC# 700728); test: Dip treatment of inoculated beef adipose, log reduction; assay type: cell-based; conditions: formulations diluted to 1% w/w + 2% lactic acid; for Log Reduction, 60 min at 5° C. / Log Reduction, 24 hours at 5° C.: 5 min treatment
Description: Bacteria were grown in the same procedure described in Example 3. The bacteria strain was non-toxic E. coli 0157: H7 (ATCC# 700728).
After inoculation, the meat pieces were placed in a cooler at 5° C. for 30+/−5 minutes to allow attachment of the organisms.
A 11.4 cm^2 coring device was used to cut surface tissue excisions no thicker than 3 mm from the inoculated samples. The stainless steel coring device was disinfected prior to each run to prevent cross-contamination among the samples. Each circular tissue excision was placed in a filter stomacher bag with 15 ml of letheen diluent and stomached for 1 minuted prior to plating.
A 11.4 cm^2 coring device was used to cut surface tissue excisions no thicker than 3 mm from the inoculated samples. The stainless steel coring device was disinfected prior to each run to prevent cross-contamination among the meat samples.
The solution was shaken well until a milky emulsion formed. The emulsion solutions were used immediately after being made.
The circles were removed immediately and the excess solution was allowed to drip from the circle for 5 sec.
The circles were placed in stomacher bags. Two of them were placed into the refrigerator and the third was tested by adding 15 ml of Letheen diluent to the third stomacher bag. This bag was stomached for 1 minute prior to plating. Duplicate samples were plated from the undiluted sample in the stomacher bag. Serial ten-fold dilutions were made and plated on a [sequence] EB plate from each dilution. After incubation the plates were counted as recommended on the package insert. After 1 h refrigeration, one of the refrigerated stomacher bags was removed and the above steps repeated for the 1 h test circle. After 24 h refrigeration, the last of the stomacher bags was removed and the above steps repeated for the 24 h test circle.
Plates were read after incubation and log reductions determined as indicated in Example 3.

[2] = test system: Staph. aureus, ATCC 25923; test: In vitro kill test of diluted formulations at 5° C., log reduction; assay type: cell-based, Staphylococcus aureus

## CC(O)C(=O)O (stereo not drawn) [2% Lactic Acid, Lactic Acid]
[1]; solution at 5° C.
  Log Reduction, 60 min at 5° C.: 1.37 log
  Log Reduction, 24 hours at 5° C.: 2.26 log
  Log Reduction, 5 min dip: 0.51 log
[1]; solution at 23° C.
  Log Reduction, 60 min at 5° C.: 1.74 log
  Log Reduction, 5 min dip: 0.87 log
[1]; solution at 50° C.
  Log Reduction, 60 min at 5° C.: 2.43 log
  Log Reduction, 24 hours at 5° C.: 2.54 log
  Log Reduction, 5 min dip: 1.72 log
[2]
  Log Reduction: <2.72 log

Reference: US20050084471A1, “Concentrated antimicrobial compositions and methods” (3M Innovative Properties Company, priority 2003, published 2005)
